Read-outs that look alike come from different tables or passages of the source.
Test system: PMA-differentiated THP-1 cells
Experiment: IL-1β production in PMA-differentiated THP-1 cells stimulated with gramicidin (hTHP-1 assay containing 2% fetal bovine serum; Procedures 1 and 2)
Type: cell-based, human
Conditions: 2% fetal bovine serum
In short: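 IL-1β release from PMA-differentiated THP-1 macrophage-like cells was triggered by 5 μM gramicidin for 2 h after 1 h compound exposure, then measured by HTRF.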

[1] = Homo sapiens, THP-1, Table B3, hTHP-1 assay, class symbols, read-out: IC50
[2] = Homo sapiens, THP-1, Table B1, numeric bounds, read-out: Average IC50 of compounds in hTHP-1 assay: hTHP-1 IC50
[3] = Homo sapiens, THP-1, Table B2, class symbols, read-out: hTHP-1 IC50
[4] = Table B2, class symbols, read-out: hTHP-1 IC50
[5] = Homo sapiens, THP-1, Table B1, class symbols, read-out: Average IC50 of compounds in hTHP-1 assay: hTHP-1 IC50
[6] = Homo sapiens, THP-1, Table B2, numeric bounds, read-out: hTHP-1 IC50

## Cc1c(C(F)(F)F)nc2c(c1NC(=O)N=[S@@](N)(=O)c1cnc(C(C)(C)O)s1)CC(C)C2 (stereo partly drawn) [Example 576, (R)-N′-((3,6-dimethyl-2-(trifluoromethyl)-6,7-dihydro-5H-cyclopenta[b]pyridin-4-yl)carbamoyl)-2-(2-hydroxypropan-2-yl)thiazole-5-sulfonimidamide]
[1]
  IC50: 0.2 to 1 µM

## CCc1c(C)nc2c(c1NC(=O)N=S(N)(=O)c1cnc(C(C)(C)O)s1)CCC2 (single isomer, unassigned) [Compound 117a, (S) or (R)-N′-((3-ethyl-2-methyl-6,7-dihydro-5H-cyclopenta[b]pyridin-4-yl)carbamoyl)-2-(2-hydroxypropan-2-yl)thiazole-5-sulfonimidamide]
[2]
  IC50: > 30 µM

## CN(C)C(=O)c1ncc(S(N)(=O)=NC(=O)Nc2c3c(nc4c2CCC4(C)C)CCC3)s1 (stereo not shown) [Example 751, 5-(N′-((3,3-dimethyl-1,2,3,5,6,7-hexahydrodicyclopenta[b,e]pyridin-8-yl)carbamoyl)sulfamidimidoyl)-N,N-dimethyl-thiazole-2-carboxamide]
Homo sapiens, THP-1, Table B4, class symbols, read-out: hTHP-1 IC50
  IC50: 1 to 5 µM

## CCn1cc(F)c(S(N)(=O)=NC(=O)Nc2c3c(nc4c2CCC4(C)C)CCC3)n1 (single isomer, unassigned) [Example 716, (S) or (R)-N′-((3,3-dimethyl-1,2,3,5,6,7-hexahydrodicyclopenta[b,e]pyridin-8-yl)carbamoyl)-1-ethyl-4-fluoro-1H-pyrazole-3-sulfonimidamide]
Table B3, hTHP-1 assay, class symbols, read-out: IC50
  IC50: 1 to 5 µM

## Cc1nc(C)c(C)c(NC(=O)N=S(N)(=O)c2cnc(C(C)(C)O)s2)c1C (stereo not shown) [Compound 133, 2-(2-hydroxypropan-2-yl)-N′-((2,3,5,6,-tetramethylpyridin-4-yl)carbamoyl)thiazole-5-sulfonimidamide]
[2]
  IC50: > 14 µM

## Cc1c(C(F)(F)F)nc2c(c1NC(=O)N=S(N)(=O)c1ccn(C(F)F)n1)CCC2 (stereo not shown) [Compound 621, 1-(Difluoromethyl)-N′-((3-methyl-2-(trifluoromethyl)-6,7-dihydro-5H-cyclopenta[b]pyridin-4-yl)carbamoyl)-1H-pyrazole-3-sulfonimidamide]
[3]
  IC50: 1 to 5 µM

## Cc1c(C(F)(F)F)nc2c(c1NC(=O)N=S(N)(=O)c1ccn(C(F)F)n1)CCC2 (single isomer, unassigned) [Compound 621b, (R) or (S)-1-(Difluoromethyl)-N′-((3-methyl-2-(trifluoromethyl)-6,7-dihydro-5H-cyclopenta[b]pyridin-4-yl)carbamoyl)-1H-pyrazole-3-sulfonimidamide]
[4]
  IC50: 1 to 5 µM

## CC1(C)CCc2nc3c(c(NC(=O)N=S(N)(=O)c4ccc([C@](C)(O)COCCOCc5ccccc5)s4)c21)CCC3 (stereo partly drawn) [Example 625, 5-((R)-1-(2-(benzyloxy)ethoxy)-2-hydroxypropan-2-yl)-N′-((1,1-dimethyl-1,2,3,5,6,7-hexahydrodicyclopenta[b,e]pyridin-8-yl)carbamoyl)thiophene-2-sulfonimidamide]
[1]
  IC50: 1 to 5 µM

## NS(=O)(=NC(=O)Nc1c2c(nc3c1CCC31CC1)CCC2)c1cnn(C(F)F)c1 (single isomer, unassigned) [Compound 638a, (R) or (S)-1-(Difluoromethyl)-N′-((1′,5′,6′,7′-tetrahydro-2′H-spiro[cyclopropane-1,3′-dicyclopenta[b,e]pyridin]-8′-yl)carbamoyl)-1H-pyrazole-4-sulfonimidamide]
[3]
  IC50: 1 to 5 µM

## CCn1ccc(S(N)(=O)=NC(=O)Nc2c3c(nc4c2CC[C@H]4C)CCC3)n1 (single isomer, unassigned) [Compound 634a, (S) or (R)-1-Ethyl-N′-(((R)-3-methyl-1,2,3,5,6,7-hexahydrodicyclopenta [b,e]pyridin-8-yl)carbamoyl)-1H-pyrazole-3-sulfonimidamide]
[4]
  IC50: 5 to 30 µM

## Cc1cn(C(C)C)nc1S(N)(=O)=NC(=O)Nc1c2c(nc3c1CCC3)CCC2 (single isomer, unassigned) [Compound 687b, (R) or (S)-N′-((1,2,3,5,6,7-hexahydrodicyclopenta [b,e]pyridin-8-yl)carbamoyl)-1-isopropyl-4-methyl-1H-pyrazole-3-sulfonimidamide]
[3]
  IC50: 5 to 30 µM

## CCn1ccc(S(N)(=O)=NC(=O)Nc2c3c(nc(C4CC4)c2C2CC2)CCC3)n1 (stereo not shown) [Example 632, N′-((2,3-dicyclopropyl-6,7-dihydro-5H-cyclopenta[b]pyridin-4-yl)carbamoyl)-1-ethyl-1H-pyrazole-3-sulfonimidamide]
[1]
  IC50: 1 to 5 µM

## CC(C)(O)c1sc(S(N)(=O)=NC(=O)Nc2c3c(nc4c2CCC4(C)C)CCC3)nc1CO (single isomer, unassigned) [Compound 642b, (R) or (S)-N′-((3,3-dimethyl-1,2,3,5,6,7-hexahydrodicyclopenta [b,e]pyridin-8-yl)carbamoyl)-4-(hydroxymethyl)-5-(2-hydroxypropan-2-yl)thiazole-2-sulfonimidamide]
[4]
  IC50: 0.04 to 0.2 µM

## C[C@](O)(CO)c1cc(F)c([S@](N)(=O)=NC(=O)Nc2c3c(nc4c2CCC42CC2)CCC3)s1 [Example 678, (R)-5-((S)-1,2-dihydroxypropan-2-yl)-3-fluoro-N′-((1′,5′,6′,7′-tetrahydro-2′H-spiro[cyclopropane-1,3′-dicyclopenta[b,e]pyridin]-8′-yl)carbamoyl)thiophene-2-sulfonimidamide]
[1]
  IC50: 0.008 to 0.04 µM

## CCc1nc2c(c(NC(=O)N=S(N)(=O)c3cc(C(C)(C)O)cs3)c1C1CC1)CCC2 (single isomer, unassigned) [Compound 654b]
[4]
  IC50: 0.2 to 1 µM

## Cc1sc(S(N)(=O)=NC(=O)Nc2c3c(nc4c2CCC4)CCC3)cc1C(C)(C)O (single isomer, unassigned) [Compound 107b, (S) or (R)-N′-((1,2,3,5,6,7-hexahydrodicyclo-penta[b,e]pyridin-8-yl)carbamoyl)-4-(2-hydroxypropan-2-yl)-5-methylthiophene-2-sulfonimidamide]
Table B1, class symbols, read-out: Average IC50 of compounds in hTHP-1 assay: hTHP-1 IC50
  IC50: 5 to 30 µM

## CC(C)(O)c1cncc(S(N)(=O)=NC(=O)Nc2c3c(nc4c2CCC4(C)C)CCC3)c1 (single isomer, unassigned) [Compound 684a, (R) or (S)-N′-((3,3-dimethyl-1,2,3,5,6,7-hexahydrodicyclopenta [b,e]pyridin-8-yl)carbamoyl)-5-(2-hydroxypropan-2-yl)pyridine-3-sulfonimidamide]
[4]
  IC50: 0.04 to 0.2 µM

## CO[C@H]1COc2c(S(N)(=O)=NC(=O)Nc3c(C)c(C(F)(F)F)nc4c3CCC4)cnn2C1 (single isomer, unassigned) [Example 656, (R) or (S)-(6R)-6-methoxy-N′-((3-methyl-2-(trifluoromethyl)-6,7-dihydro-5H-cyclopenta[b]pyridin-4-yl)carbamoyl)-6,7-dihydro-5H-pyrazolo[5,1-b][1,3] oxazine-3-sulfonimidamide]
[1]
  IC50: 1 to 5 µM

## CC(C)c1ncc(F)c(C(C)C)c1NC(=O)N=S(N)(=O)c1ccc(CN(C)C)cc1 (single isomer, unassigned) [Compound 132a, (R) or (S)-4-((dimethyl-amino)methyl)-N′-((5-fluoro-2,4-diisopropylpyridin-3-yl)carbamoyl)benzene-sulfonimidamide]
[5]
  IC50: 5 to 30 µM

## CC(C)(O)c1ccc(S(N)(=O)=NC(=O)Nc2c3c(nc4c2CCC4(C)C)CCC3)cn1 (single isomer, unassigned) [Compound 673b, (S) or (R)-N′-((3,3-dimethyl-1,2,3,5,6,7-hexahydrodicyclopenta [b,e]pyridin-8-yl)carbamoyl)-6-(2-hydroxypropan-2-yl)pyridine-3-sulfonimidamide]
[6]
  IC50: > 30 µM

## CCn1cc(F)c(S(N)(=O)=NC(=O)Nc2c3c(nc4c2CCC4(C)C)CCC3)n1 (stereo not shown) [Example 638, N′-((3,3-dimethyl-1,2,3,5,6,7-hexahydrodicyclopenta[b,e]pyridin-8-yl)carbamoyl)-1-ethyl-4-fluoro-1H-pyrazole-3-sulfonimidamide]
[1]
  IC50: 0.008 to 0.04 µM

## NS(=O)(=NC(=O)Nc1c2c(nc(C(F)(F)F)c1C1CC1)CCC2)c1nn(C(F)F)cc1F (single isomer, unassigned) [Example 775, (R) or (S)-N′-((3-cyclopropyl-2-(trifluoromethyl)-6,7-dihydro-5H-cyclopenta[b]pyridin-4-yl)carbamoyl)-1-(difluoromethyl)-4-fluoro-1H-pyrazole-3-sulfonimidamide]
Table B4, class symbols, read-out: hTHP-1 IC50
  IC50: 0.04 to 0.2 µM

## CC1CCc2c1nc1c(c2NC(=O)N=S(N)(=O)c2ncc(C(C)(C)O)s2)CCC1 (single isomer, unassigned) [Compound 140aa, (R,R) or (R,S)-5-(2-hydroxypropan-2-yl)-N′-((3-methyl-1,2,3,5,6,7-hexa-hydrodicyclo-penta[b,e]pyridin-8-yl)carbamoyl)thiazole-2-sulfonimidamide]
[5]
  IC50: 0.04 to 0.2 µM

## Cc1c(C(F)F)nc2c(c1NC(=O)N=S(N)(=O)c1cnc(C(C)(C)O)s1)CCC2 (single isomer, unassigned) [Compound 647b, (S) or (R)-N′-((2-(difluoromethyl)-3-methyl-6,7-dihydro-5H-cyclopenta[b]pyridin-4-yl)carbamoyl)-2-(2-hydroxypropan-2-yl)thiazole-5-sulfonimidamide]
[6]
  IC50: > 30 µM

## Cc1cc(S(N)(=O)=NC(=O)Nc2c3c(nc4c2CCC4)CCC3)sc1C(C)(C)O (stereo not shown) [Compound 692, N′-((1,2,3,5,6,7-hexahydrodicyclopenta[b,e]pyridin-8-yl)carbamoyl)-5-(2-hydroxypropan-2-yl)-4-methylthiophene-2-sulfonimidamide]
[3]
  IC50: 1 to 5 µM

From patent US20230031406A1, “COMPOUNDS AND COMPOSITIONS FOR TREATING CONDITIONS ASSOCIATED WITH NLRP ACTIVITY” (Novartis AG, priority 2018, published 2023)
